According to US20100311643A1, “USE OF GLP-1 AS A THERAPEUTIC AGENT” (priority 2007, published 2010):

Experiments:
HIV-1IIIB = assay: HIV-1 antiviral assay (CPE reduction, MTS staining); assay type: cell-based; conditions: test peptide 10 micrograms per ml; 6 days post-infection; triplicate
in vitro [1] = conditions: human, MRC-5 cells (embryonal lung fibroblasts)
[2] = Cytotoxicity in the HBV assay (dye uptake cell viability); conditions: human
MRSA = conditions: 5 micrograms per ml
Streptococcus pneumoniae = assay type: cell-based; conditions: 5 micrograms per ml
in vitro [3] = conditions: human, CEM-SS cells (uninfected, cells plus peptide only)
Pseudomonas aeruginosa = assay type: cell-based; conditions: 5 micrograms per ml

Compound	% CPE reduction in HIV-1 infected CEM-SS cells (HIV-1IIIB) [%]	viability at 144 h (in vitro [1]) [%]	viability at 144 h, 10 micrograms per ml [2] [%]	% inhibition (MRSA) [%]	% inhibition (Streptococcus pneumoniae) [%]	viability at 10 micrograms per ml (in vitro [3]) [%]	% inhibition (Pseudomonas aeruginosa) [%]
Cc1cn([C@H]2C[C@H](N=[N+]=[N-])[C@@H](CO)O2)c(=O)[nH]c1=O [AZT]	99						
CC[C@H](C)[C@H](NC(=O)[C@H](Cc1ccccc1)NC(=O)[C@H](CCC(=O)O)NC(=O)[C@H](CCCCN)NC(=O)[C@H](C)NC(=O)[C@H](C)NC(=O)[C@H](CCC(N)=O)NC(=O)CNC(=O)[C@H](CCC(=O)O)NC(=O)[C@H](CC(C)C)NC(=O)[C@H](Cc1ccc(O)cc1)NC(=O)[C@H](CO)NC(=O)[C@H](CO)NC(=O)[C@@H](NC(=O)[C@H](CC(=O)O)NC(=O)[C@H](CO)NC(=O)[C@@H](NC(=O)[C@H](Cc1ccccc1)NC(=O)[C@@H](NC(=O)CNC(=O)[C@H](CCC(=O)O)NC(=O)[C@H](C)NC(=O)[C@H](Cc1c[nH]cn1)NC(=O)[C@H](CCCNC(=N)N)NC(=O)[C@H](CCC(=O)O)NC(=O)[C@H](Cc1ccccc1)NC(=O)[C@H](CCC(=O)O)NC(=O)[C@H](CC(=O)O)NC(=O)[C@@H](N)Cc1c[nH]cn1)[C@@H](C)O)[C@@H](C)O)C(C)C)C(=O)N[C@@H](C)C(=O)N[C@@H](Cc1c[nH]c2ccccc12)C(=O)N[C@@H](CC(C)C)C(=O)N[C@H](C(=O)N[C@@H](CCCCN)C(=O)NCC(=O)N[C@@H](CCCNC(=N)N)C(=O)NCC(=O)O)C(C)C [GLP-1]		100	95.8	0.0	0.0	100	0.0
